For the data set, the system named is CCRIS mutagenicity, Ames/micronucleus/aberration tests. As to the kind of experiment: CCRIS mutagenicity studies.
Setting [1] is: Test System: AMES SALMONELLA TYPHIMURIUM, Strain/Indicator: TA98, Metabolic Activation: NONE, Method: STANDARD PLATE.
Setting [2] is: Test System: AMES SALMONELLA TYPHIMURIUM, Strain/Indicator: TA100, Metabolic Activation: NONE, Method: STANDARD PLATE.
The mark [3] stands for this setting: Test System: AMES SALMONELLA TYPHIMURIUM, Strain/Indicator: TA1535, Metabolic Activation: NONE, Method: STANDARD PLATE.
[4] abbreviates: Test System: AMES SALMONELLA TYPHIMURIUM, Strain/Indicator: TA1537, Metabolic Activation: NONE, Method: STANDARD PLATE.
The mark [5] stands for this setting: Test System: AMES SALMONELLA TYPHIMURIUM, Strain/Indicator: TA1538, Metabolic Activation: NONE, Method: STANDARD PLATE.
The mark [6] stands for this setting: Test System: AMES SALMONELLA TYPHIMURIUM, Strain/Indicator: TA98, Metabolic Activation: HAMSTER, LIVER, S-9, AROCLOR 1254, Method: STANDARD PLATE.
The mark [7] stands for this setting: Test System: AMES SALMONELLA TYPHIMURIUM, Strain/Indicator: TA98, Metabolic Activation: RAT, LIVER, S-9, AROCLOR 1254, Method: STANDARD PLATE.
Setting [8] is: Test System: AMES SALMONELLA TYPHIMURIUM, Strain/Indicator: TA100, Metabolic Activation: HAMSTER, LIVER, S-9, AROCLOR 1254, Method: STANDARD PLATE.
The mark [9] stands for this setting: Test System: AMES SALMONELLA TYPHIMURIUM, Strain/Indicator: TA100, Metabolic Activation: RAT, LIVER, S-9, AROCLOR 1254, Method: STANDARD PLATE.
Where [10] appears, read: Test System: AMES SALMONELLA TYPHIMURIUM, Strain/Indicator: TA1535, Metabolic Activation: HAMSTER, LIVER, S-9, AROCLOR 1254, Method: STANDARD PLATE.
Setting [11] is: Test System: AMES SALMONELLA TYPHIMURIUM, Strain/Indicator: TA1535, Metabolic Activation: RAT, LIVER, S-9, AROCLOR 1254, Method: STANDARD PLATE.
[12] abbreviates: Test System: AMES SALMONELLA TYPHIMURIUM, Strain/Indicator: TA1537, Metabolic Activation: HAMSTER, LIVER, S-9, AROCLOR 1254, Method: STANDARD PLATE.
Where [13] appears, read: Test System: AMES SALMONELLA TYPHIMURIUM, Strain/Indicator: TA1537, Metabolic Activation: RAT, LIVER, S-9, AROCLOR 1254, Method: STANDARD PLATE.
The mark [14] stands for this setting: Test System: AMES SALMONELLA TYPHIMURIUM, Strain/Indicator: TA1538, Metabolic Activation: HAMSTER, LIVER, S-9, AROCLOR 1254, Method: STANDARD PLATE.
Where [15] appears, read: Test System: AMES SALMONELLA TYPHIMURIUM, Strain/Indicator: TA1538, Metabolic Activation: RAT, LIVER, S-9, AROCLOR 1254, Method: STANDARD PLATE.
Setting [16] is: Test System: MOUSE LYMPHOMA, Strain/Indicator: L5178Y (TK+/TK-), Metabolic Activation: NONE, Method: SUSPENSION/PLATE.
[17] abbreviates: Test System: MOUSE LYMPHOMA, Strain/Indicator: L5178Y (TK+/TK-), Metabolic Activation: RAT, LIVER, S-9, AROCLOR 1254, Method: SUSPENSION/PLATE.

Structures are written as SMILES. The source made the active and inactive calls. No rule for the calls is given here.

Take `CC(C)(C)CBr`: the mutagenic call was “inactive; negative” (Test System: AMES SALMONELLA TYPHIMURIUM, Strain/Indicator: TA97, Metabolic Activation: NONE, Method: STANDARD PLATE); “inactive; negative” under setting [1]; “inactive; negative” (Test System: AMES SALMONELLA TYPHIMURIUM, Strain/Indicator: TA98, Metabolic Activation: RAT, LIVER, S-9, AROCLOR, Method: STANDARD PLATE); “inactive; negative” under setting [2]; “inactive; negative” (Test System: AMES SALMONELLA TYPHIMURIUM, Strain/Indicator: TA100, Metabolic Activation: RAT, LIVER, S-9, AROCLOR, Method: STANDARD PLATE); “inactive; negative” under setting [3]. In addition, the mutagenic call runs as follows: under setting [4], “inactive; negative”; under setting [5], “inactive; negative”; (Test System: AMES SALMONELLA TYPHIMURIUM, Strain/Indicator: TA2637, Metabolic Activation: NONE, Method: STANDARD PLATE) “inactive; negative”.
With `C[Si](C)(C)O[Si](C)(C)O[Si](C)(C)C`, the mutagenic call under setting [6] was “inactive; negative”; the mutagenic call under setting [1] was “inactive; negative”; the mutagenic call under setting [7] is “inactive; negative”; the mutagenic call under setting [8] was “inactive; negative”; the mutagenic call under setting [2] is “inactive; negative”; the mutagenic call under setting [9] was “inactive; negative”. Moreover, the mutagenic call reads like this: under setting [10], “inactive; negative”; under setting [3], “inactive; negative”; under setting [11], “inactive; negative”; under setting [12], “inactive; negative”; under setting [4], “inactive; negative”; under setting [13], “inactive; negative”. The mutagenic call by setting is: under setting [14], “inactive; negative”; under setting [5], “inactive; negative”; under setting [15], “inactive; negative”; (Test System: E. COLI, Strain/Indicator: WP2, Metabolic Activation: NONE, Method: STANDARD PLATE) “inactive; negative”; (Test System: E. COLI, Strain/Indicator: WP2, Metabolic Activation: RAT, LIVER, S-9, AROCLOR 1254, Method: STANDARD PLATE) “inactive; negative”; under setting [16], “active; positive. reevaluation of results: positive”. The mutagenic call under setting [17] is “inactive; negative. reevaluation of results: negative”.
As for `NC(=O)N(CCO)N=O`, the mutagenic call (Test System: E. COLI B, Strain/Indicator: H/R30R, Metabolic Activation: NONE) was “active; positive” and the mutagenic call (Test System: E. COLI B, Strain/Indicator: HS30R, Metabolic Activation: NONE) was “active; positive”.
With `Nc1ccc(C(=O)O)cc1`, the mutagenic call by setting is: (Test System: AMES SALMONELLA TYPHIMURIUM, Strain/Indicator: TA98, Metabolic Activation: HAMSTER, LIVER, S-9, AROCLOR 1254 (10%), Method: PREINCUBATION) “inactive; negative”; (Test System: AMES SALMONELLA TYPHIMURIUM, Strain/Indicator: TA98, Metabolic Activation: NONE, Method: PREINCUBATION) “inactive; negative”; (Test System: AMES SALMONELLA TYPHIMURIUM, Strain/Indicator: TA98, Metabolic Activation: RAT, LIVER, S-9, AROCLOR 1254 (10%), Method: PREINCUBATION) “inactive; negative”; (Test System: AMES SALMONELLA TYPHIMURIUM, Strain/Indicator: TA100, Metabolic Activation: HAMSTER, LIVER, S-9, AROCLOR 1254 (10%), Method: PREINCUBATION) “inactive; negative”; (Test System: AMES SALMONELLA TYPHIMURIUM, Strain/Indicator: TA100, Metabolic Activation: NONE, Method: PREINCUBATION) “inactive; negative”; (Test System: AMES SALMONELLA TYPHIMURIUM, Strain/Indicator: TA100, Metabolic Activation: RAT, LIVER, S-9, AROCLOR 1254 (10%), Method: PREINCUBATION) “inactive; negative”. For the same molecule, the mutagenic call is “inactive; negative” (Test System: AMES SALMONELLA TYPHIMURIUM, Strain/Indicator: TA1535, Metabolic Activation: HAMSTER, LIVER, S-9, AROCLOR 1254 (10%), Method: PREINCUBATION); “inactive; negative” (Test System: AMES SALMONELLA TYPHIMURIUM, Strain/Indicator: TA1535, Metabolic Activation: NONE, Method: PREINCUBATION); “inactive; negative” (Test System: AMES SALMONELLA TYPHIMURIUM, Strain/Indicator: TA1535, Metabolic Activation: RAT, LIVER, S-9, AROCLOR 1254 (10%), Method: PREINCUBATION); “inactive; negative” (Test System: AMES SALMONELLA TYPHIMURIUM, Strain/Indicator: TA1537, Metabolic Activation: HAMSTER, LIVER, S-9, AROCLOR 1254 (10%), Method: PREINCUBATION); “inactive; negative” (Test System: AMES SALMONELLA TYPHIMURIUM, Strain/Indicator: TA1537, Metabolic Activation: NONE, Method: PREINCUBATION); “inactive; negative” (Test System: AMES SALMONELLA TYPHIMURIUM, Strain/Indicator: TA1537, Metabolic Activation: RAT, LIVER, S-9, AROCLOR 1254 (10%), Method: PREINCUBATION).
Consider `Clc1nnc(Cl)c2ccccc12`, for which the mutagenic call under setting [6] was “inactive; negative”; the mutagenic call under setting [1] is “inactive; negative”; the mutagenic call under setting [7] is “inactive; negative”; the mutagenic call under setting [8] is “inactive; negative”; the mutagenic call under setting [2] was “inactive; negative”; the mutagenic call under setting [9] is “inactive; negative”. In addition, the mutagenic call under setting [10] was “inactive; negative”; the mutagenic call under setting [3] was “inactive; negative”; the mutagenic call under setting [11] was “inactive; negative”; the mutagenic call under setting [12] is “inactive; negative”; the mutagenic call under setting [4] was “inactive; negative”; the mutagenic call under setting [13] was “inactive; negative”. Moreover, the mutagenic call was “inactive; negative” under setting [14]; “inactive; negative” under setting [5]; “inactive; negative” under setting [15]; “active; positive. reevaluation of results: inconclusive” under setting [16]; “active; positive. reevaluation of results: positive” under setting [17].

Source of the values: PubChem BioAssay AID1259407 (Chemical Carcinogenesis Research Information System (CCRIS), 2018).
